Test results published in US5985824A, “Methods and compositions for treating cystic fibrosis” (priority 1997, dated 1999).
Entries after “also recorded” stand apart in the source; their conditions may differ. Like-named read-outs stand apart in the source and are kept apart here.

Key:
[1] = tested on: ΔF508-CFTR (C127-ΔF508-low cells); test: SPQ halide efflux assay, cAMP-stimulated Cl- channel activity, C127-ΔF508-low cells; assay type: cell-based; details: FIG. 1E
[2] = biological target: hsc70 (hsp70); details: cited from earlier work
[3] = tested on: ΔF508-CFTR (CFT1 cells); test: SPQ assay, cAMP-stimulated Cl- channel activity, CFT1 cells; assay type: cell-based, human
Experimental: (§1) The cAMP-dependent CFTR Cl^- channel activity was assessed using the halide-sensitive fluorophore 6-methoxy-N-(3-sulfopropyl)-quinolinium (SPQ) essentially as described previously (Cheng et al., (1995), supra.; Marshall et al., supra.). Briefly, the cells were treated with different amounts of DSG for the times specified. At the end of the treatment period, the cells were loaded with SPQ by hypotonic shock for 4 min at room temperature. SPQ fluorescence initially was quenched by incubating the cells for up to 30 min in a NaI buffer (135 mM NaI, 2.4 mM K2 HPO4, 0.6 mM KH2 PO4, 1 mM MgSO4, 1 mM CaSO4, 10 mM dextrose, and 10 mM N-2 hydroxyethylpiperazine-N'2-ethanesulfonic acid, pH 7.4). After measuring the baseline fluorescence (Fo) for 2 min., the NaI solution was replaced with one containing 135 mM NaNO3, and fluorescence was measured for another 16 min. […]
(§2) An increase in halide permeability is reflected by a more rapid increase in SPQ fluorescence. […] Differences in absolute levels reflect quantitative differences between groups in SPQ loading, size of cells, or number of cells studied. The data are presented as means± SE of fluorescence at time t (Ft) minus the baseline fluorescence (Fo, the average fluorescence measured in the presence of I^- for 2 min. before ion substitution) and are representative of results obtained under each condition. […]

[4] = tested on: ΔF508-CFTR (JME/CF15 cells); test: SPQ assay, cAMP-stimulated Cl- channel activity, JME/CF15 cells; assay type: cell-based, human
Experimental: The cAMP-dependent CFTR Cl^- channel activity was assessed using the halide-sensitive fluorophore 6-methoxy-N-(3-sulfopropyl)-quinolinium (SPQ) essentially as described previously (Cheng et al., (1995), supra.; Marshall et al., supra.). Briefly, the cells were treated with different amounts of DSG for the times specified. At the end of the treatment period, the cells were loaded with SPQ by hypotonic shock for 4 min at room temperature. SPQ fluorescence initially was quenched by incubating the cells for up to 30 min in a NaI buffer (135 mM NaI, 2.4 mM K2 HPO4, 0.6 mM KH2 PO4, 1 mM MgSO4, 1 mM CaSO4, 10 mM dextrose, and 10 mM N-2 hydroxyethylpiperazine-N'2-ethanesulfonic acid, pH 7.4). After measuring the baseline fluorescence (Fo) for 2 min., the NaI solution was replaced with one containing 135 mM NaNO3, and fluorescence was measured for another 16 min. Forskolin (20 μM) and 3-isobutyl-1-methyl-xanthine (IBMX) (100 μM) were added 5 min after the anion substitution to increase intracellular levels of cAMP.
An increase in halide permeability is reflected by a more rapid increase in SPQ fluorescence. It is the rate of change rather than the absolute change in signal that is the important variable in evaluating anion permeability. Differences in absolute levels reflect quantitative differences between groups in SPQ loading, size of cells, or number of cells studied. The data are presented as means± SE of fluorescence at time t (Ft) minus the baseline fluorescence (Fo, the average fluorescence measured in the presence of I^- for 2 min. before ion substitution) and are representative of results obtained under each condition.
For each experiment, between 50 to 100 cells were examined on a given day and studies under each condition were repeated on at least two days. […] There was a broad spectrum in the rate of change in SPQ fluorescence observed with responsive cells. Normally, cells were scored as responsive if they generated a minimum of a […] change in the rate of increase in SPQ fluorescence following stimulation with cAMP agonists. […]

[5] = biological target: hsp90; details: read-out: kds, DSG-hsp complexes; cited from earlier work
[6] = tested on: ΔF508-CFTR (LLCPK1-ΔF508 cells); test: SPQ assay, cAMP-stimulated Cl- channel activity, LLCPK1-ΔF508 cells; assay type: cell-based
Experimental: as §1, §2

[7] = tested on: ΔF508-CFTR (IBE-1 cells); test: SPQ halide efflux assay, cAMP-stimulated Cl- channel activity, IBE-1 cells; assay type: cell-based, human; details: DSG 5 to 50 μg/ml, 72 h
Experimental: as §1, §2

In the case of N=C(N)NCCCCCCC(=O)NC(O)C(=O)NCCCCNCCCN (centres unmarked) [DSG, deoxyspergualin], the “percentage of mature CFTR produced from CFTR-ΔF508 upon exposure to reduced temperatures” value [1] is listed as “increases upon exposure to reduced temperatures”, the Kd ([2]; hsc70, Nadeau et al. (1994), read-out: Kd value for DSG binding to hsc70) is listed as 4 µM and the Kd ([2]; hsp70, read-out: kds, DSG-hsp complexes) is listed as 4 to 5 µM. The “affinity for hsps, in words” value ([2]; hsps, Nadler et al. (1992), Nadeau et al. (1994)) was “Pure human hsp90 and hsp70 have equivalent affinities for DSG”, the “cAMP-stimulated Cl- channel activity, in words” value [3] was “very similar results” and the “cAMP-stimulated Cl- channel activity, in words” value ([4]; 72 h) was “more robust than that attained when cells were cultured at low temperature; also recorded: a greater number of responsive cells was observed when 10 μg/ml of DSG was used instead of 5 μg/ml; also recorded: no further significant increment in response was noted at concentrations higher than 10 μg/ml; also recorded: increased cAMP-mediated chloride channel activity; also recorded: comparable to that observed when these cells were cultured at a reduced temperature; also recorded: displayed cAMP-responsive Cl^- channel activity”. For the same compound, the “percentage of mature CFTR produced from CFTRΔF508 upon exposure to reduced temperatures” value ([4]; FIG. 4) was “increases upon exposure to reduced temperatures”, the Kd [5] was 4 to 5 µM and the “cAMP-stimulated Cl- channel activity, in words” value [6] was “marginal; also recorded: Data similar to those described for C127-ΔF508-low cells”. For the same compound, the “cAMP-stimulated Cl- channel activity, in words” value [7] was “concentration-dependent, with higher concentrations of DSG giving rise to greater transport rates and higher numbers of positively-responding cells; also recorded: comparable to that observed when these cells were cultured at a reduced temperature” and the “cells exhibiting measurable cAMP-stimulated Cl- channel activity” value ([7]; FIG. 9B) was “up to 20%”.
